Like-named read-outs stand apart in the source and are kept apart here.
How the values were obtained:
[1] = molecular target: T1, focal adhesion kinase (FAK) autophosphorylation at tyrosine 397 in HT29 cells (Homo sapiens, UniProt Q05397); assay: Cellular testing of FAK inhibitors: FAK autophosphorylation at tyrosine 397 in HT29 cells (Luminex-based assay); format: cell-based; conditions: Table 2, phospho-Y397-FAK, 30 min serum-free, read-out: HT-29 IC50
T1 construct: endogenous in cells; host or cells: HT29
Description: 2. Assay Principle for Celluar Testing of FAK Inhibitors
Cellular activity of focal adhesion kinase (FAK) is determined by the degree of FAK autophosphorylation at tyrosine 397 using a Luminex-based assay. HT29 cells are plated with 30,000 cells per well of a 96-well plate in 100 μl medium (90% DMEM/10% FCS). At the following day, test compounds are added in a serial dilution under serum-free conditions for 30 min. Then, cells were lysed with 90 μl lysis buffer (20 mM Tris/HCl pH 8.0, 150 mM NaCl, 1% NP40, 10% Glycerol, 1% Phosphatase-Inhibitor II, 20 mM […]-Glycerolphosphat, 0.1% Protease-Inhibitor Cocktail III, 0.01% Benzonase) and lysates were cleared by centrifugation through a 96-well filter plate (0.65 μm). Samples were incubated with Luminex-beads which were coupled with an anti-total FAK antibody overnight at 4° C. with under gentle agitation. For detection of phospho-Y397-FAK a phosphospecific antibody and a species specific PE-labeled secondary antibody are added. The amount of phospho-Y397-FAK is determined in a Luminex100 machine measuring 100 events per well within 60 seconds.
Counts from samples treated with a FAK reference inhibitor are subtracted as pharmacological blank. Counts from samples treated with test compounds are calculated as percent of control from solvent treated (0.3% DMSO) samples. IC50 values were determined using AssayExplorer software.

[2] = molecular target: T2, GST-FAK (N-terminal GST fusion with truncated human FAK (376-1052 (end) amino acids)) (Homo sapiens, UniProt Q05397); assay: Biochemical enzyme assay for FAK activity (Caliper LC3000 mobility shift); conditions: 100 uM ATP, read-out: FAK IC50
T2 construct: truncated human FAK (376-1052 (end) amino acids)
Outline: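 Inhibitor dose series in DMSO were incubated 90 min at 25 °C with truncated GST-tagged human FAK (0.067 ng/µl) and FITC-labelled peptide substrate (1 µM), with ATP at 100 µM and FERM peptide at 1 mM (pH 7.5 HEPES). After EDTA quench, phosphorylated and unphosphorylated peptides were resolved electrophoretically. Percent conversion was fitted for IC50.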

T2 sequence (Q05397 376-1052): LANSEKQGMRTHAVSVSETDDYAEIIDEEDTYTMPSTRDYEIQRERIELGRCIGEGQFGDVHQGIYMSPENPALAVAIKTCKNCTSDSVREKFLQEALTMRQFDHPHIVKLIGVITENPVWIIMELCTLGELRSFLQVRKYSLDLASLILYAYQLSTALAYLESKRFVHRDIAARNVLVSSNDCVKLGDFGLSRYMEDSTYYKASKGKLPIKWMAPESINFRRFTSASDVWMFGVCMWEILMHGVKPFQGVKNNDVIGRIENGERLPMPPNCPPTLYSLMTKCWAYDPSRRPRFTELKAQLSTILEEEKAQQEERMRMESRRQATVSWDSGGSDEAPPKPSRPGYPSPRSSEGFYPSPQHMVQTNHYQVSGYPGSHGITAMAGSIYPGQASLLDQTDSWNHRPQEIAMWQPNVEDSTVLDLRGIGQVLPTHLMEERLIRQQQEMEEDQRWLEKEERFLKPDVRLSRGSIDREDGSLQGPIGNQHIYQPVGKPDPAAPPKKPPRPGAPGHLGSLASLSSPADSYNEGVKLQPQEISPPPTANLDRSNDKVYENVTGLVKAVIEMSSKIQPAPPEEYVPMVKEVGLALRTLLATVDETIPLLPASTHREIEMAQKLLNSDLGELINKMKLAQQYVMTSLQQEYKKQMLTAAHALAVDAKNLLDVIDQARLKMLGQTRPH
T1 sequence (Q05397 whole entry): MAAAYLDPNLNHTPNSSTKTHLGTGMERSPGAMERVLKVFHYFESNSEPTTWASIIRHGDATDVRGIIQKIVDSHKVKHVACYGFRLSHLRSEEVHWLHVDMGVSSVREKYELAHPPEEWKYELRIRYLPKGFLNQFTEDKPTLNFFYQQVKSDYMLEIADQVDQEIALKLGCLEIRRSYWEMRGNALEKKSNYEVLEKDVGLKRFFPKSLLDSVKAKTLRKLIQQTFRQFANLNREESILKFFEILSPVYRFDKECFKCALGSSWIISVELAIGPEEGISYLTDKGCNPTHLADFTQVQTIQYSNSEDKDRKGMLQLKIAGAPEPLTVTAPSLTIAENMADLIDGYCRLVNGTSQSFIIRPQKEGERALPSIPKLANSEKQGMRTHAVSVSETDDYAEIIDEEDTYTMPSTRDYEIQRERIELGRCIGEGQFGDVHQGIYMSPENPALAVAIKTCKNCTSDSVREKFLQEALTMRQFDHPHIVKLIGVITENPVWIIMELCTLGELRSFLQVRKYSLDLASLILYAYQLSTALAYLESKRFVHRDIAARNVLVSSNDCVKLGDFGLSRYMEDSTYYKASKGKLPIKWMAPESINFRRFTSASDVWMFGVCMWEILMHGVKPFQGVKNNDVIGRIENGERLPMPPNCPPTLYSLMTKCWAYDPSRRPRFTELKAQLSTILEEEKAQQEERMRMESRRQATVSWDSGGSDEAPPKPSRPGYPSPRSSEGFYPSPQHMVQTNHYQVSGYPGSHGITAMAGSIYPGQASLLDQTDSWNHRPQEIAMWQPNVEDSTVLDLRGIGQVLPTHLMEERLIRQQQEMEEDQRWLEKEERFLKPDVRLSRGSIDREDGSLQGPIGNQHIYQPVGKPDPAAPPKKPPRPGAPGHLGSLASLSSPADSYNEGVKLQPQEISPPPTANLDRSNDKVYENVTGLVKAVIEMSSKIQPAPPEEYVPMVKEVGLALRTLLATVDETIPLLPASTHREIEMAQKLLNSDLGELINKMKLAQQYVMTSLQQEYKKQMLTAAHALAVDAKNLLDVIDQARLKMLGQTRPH

Row | IC50 [1] [nM] | IC50 ([2]; Table 2) [nM] | IC50 ([2]; Table 5) [nM] | SMILES
1 | 100 to 1000 | < 100 | – | NC(=O)CCNC(=O)c1cc(NCc2ccc(F)cc2F)nc(-c2cncc(C(F)(F)F)c2)n1 [Compound 41, 6-(2,4-Difluoro-benzylamino)-2-(5-trifluoromethyl-pyridin-3-yl)-pyrimidine-4-carboxylic acid (2-carbamoyl-ethyl)-amide]
2 | 1000 to 10000 | < 100 | – | CCN(CC)C(=O)CCNC(=O)c1cc(NCc2ccc(F)cc2F)nc(-c2cncc(C(F)(F)F)c2)n1 [Compound 42, 6-(2,4-Difluoro-benzylamino)-2-(5-trifluoromethyl-pyridin-3-yl)-pyrimidine-4-carboxylic acid (2-diethylcarbamoyl-ethyl)-amide]
3 | 1000 to 10000 | < 100 | – | O=C(NCCC(=O)N1CCOCC1)c1cc(NCc2ccc(F)cc2F)nc(-c2cncc(C(F)(F)F)c2)n1 [Compound 43, 6-(2,4-Difluoro-benzylamino)-2-(5-trifluoromethyl-pyridin-3-yl)-pyrimidine-4-carboxylic acid (3-morpholin-4-yl-3-oxo-propyl)-amide]
4 | 1000 to 10000 | < 100 | – | CN1CCN(C(=O)CCNC(=O)c2cc(NCc3ccc(F)cc3F)nc(-c3cncc(C(F)(F)F)c3)n2)CC1 [Compound 44, 6-(2,4-Difluoro-benzylamino)-2-(5-trifluoromethyl-pyridin-3-yl)-pyrimidine-4-carboxylic acid [3-(4-methyl-piperazin-1-yl)-3-oxo-propyl]-amide]
5 | 1000 to 10000 | < 100 | – | CN(C)CCCNC(=O)c1cc(NCc2ccc(F)cc2F)nc(-c2cncc(C(F)(F)F)c2)n1 [Compound 45, 6-(2,4-Difluoro-benzylamino)-2-(5-trifluoromethyl-pyridin-3-yl)-pyrimidine-4-carboxylic acid (3-dimethylamino-propyl)-amide]
6 | 1000 to 10000 | < 100 | – | O=C(NCCCn1ccnc1)c1cc(NCc2ccc(F)cc2F)nc(-c2cncc(C(F)(F)F)c2)n1 [Compound 46, 6-(2,4-Difluoro-benzylamino)-2-(5-trifluoromethyl-pyridin-3-yl)-pyrimidine-4-carboxylic acid (3-imidazol-1-yl-propyl)-amide]
7 | 100 to 1000 | < 100 | – | O=C(NCCCN1CCCC1=O)c1cc(NCc2ccc(F)cc2F)nc(-c2cncc(C(F)(F)F)c2)n1 [Compound 47, 6-(2,4-Difluoro-benzylamino)-2-(5-trifluoromethyl-pyridin-3-yl)-pyrimidine-4-carboxylic acid [3-(2-oxo-pyrrolidin-1-yl)-propyl]-amide]
8 | > 10000 | < 100 | – | O=C(NCCCN1CCOCC1)c1cc(NCc2ccc(F)cc2F)nc(-c2cncc(C(F)(F)F)c2)n1 [Compound 48, 6-(2,4-Difluoro-benzylamino)-2-(5-trifluoromethyl-pyridin-3-yl)-pyrimidine-4-carboxylic acid (3-morpholin-4-yl-propyl)-amide]
9 | 1000 to 10000 | < 100 | – | NC(=O)C1CCN(C(=O)c2cc(NCc3ccc(F)cc3F)nc(-c3cncc(C(F)(F)F)c3)n2)CC1 [Compound 49, 1-[6-(2,4-Difluoro-benzylamino)-2-(5-trifluoromethyl-pyridin-3-yl)-pyrimidine-4-carbonyl]-piperidine-4-carboxylic acid amide]
10 | 1000 to 10000 | < 100 | – | NC(=O)C1CCCN(C(=O)c2cc(NCc3ccc(F)cc3F)nc(-c3cncc(C(F)(F)F)c3)n2)C1 (centres unmarked) [Compound 50, 1-[6-(2,4-Difluoro-benzylamino)-2-(5-trifluoromethyl-pyridin-3-yl)-pyrimidine-4-carbonyl]-piperidine-3-carboxylic acid amide]
11 | 1000 to 10000 | < 100 | – | CN1CCC(CNC(=O)c2cc(NCc3ccc(F)cc3F)nc(-c3cncc(C(F)(F)F)c3)n2)C1 (centres unmarked) [Compound 51, 6-(2,4-Difluoro-benzylamino)-2-(5-trifluoromethyl-pyridin-3-yl)-pyrimidine-4-carboxylic acid (1-methyl-pyrrolidin-3-ylmethyl)-amide]
12 | 1000 to 10000 | < 100 | – | O=C(NCCc1c[nH]cn1)c1cc(NCc2ccc(F)cc2F)nc(-c2cncc(C(F)(F)F)c2)n1 [Compound 52, 6-(2,4-Difluoro-benzylamino)-2-(5-trifluoromethyl-pyridin-3-yl)-pyrimidine-4-carboxylic acid [2-(1H-imidazol-4-yl)-ethyl]-amide]
13 | 1000 to 10000 | < 100 | – | CN(C)CCCCNC(=O)c1cc(NCc2ccc(F)cc2F)nc(-c2cncc(C(F)(F)F)c2)n1 [Compound 53, 6-(2,4-Difluoro-benzylamino)-2-(5-trifluoromethyl-pyridin-3-yl)-pyrimidine-4-carboxylic acid (4-dimethylamino-butyl)-amide]
14 | 1000 to 10000 | < 100 | – | CN1CCC(NC(=O)c2cc(NCc3ccc(F)cc3F)nc(-c3cncc(C(F)(F)F)c3)n2)CC1 [Compound 54, 6-(2,4-Difluoro-benzylamino)-2-(5-trifluoromethyl-pyridin-3-yl)-pyrimidine-4-carboxylic acid (1-methyl-piperidin-4-yl)-amide]
15 | 1000 to 10000 | 100 to 1000 | – | NC(=O)C1CCCN(c2cc(NCc3ccc(F)cc3F)nc(-c3cncc(C(F)(F)F)c3)n2)C1 (centres unmarked) [Compound 55, 1-[6-(2,4-Difluoro-benzylamino)-2-(5-trifluoromethyl-pyridin-3-yl)-pyrimidin-4-yl]-piperidine-3-carboxylic acid amide]
16 | 1000 to 10000 | 100 to 1000 | – | Fc1ccc(CNc2cc(NCCCn3ccnc3)nc(-c3cncc(C(F)(F)F)c3)n2)c(F)c1 [Compound 56, N-(2,4-Difluoro-benzyl)-N′-(3-imidazol-1-yl-propyl)-2-(5-trifluoromethyl-pyridin-3-yl)-pyrimidine-4,6-diamine]
17 | 1000 to 10000 | 100 to 1000 | – | O=C1CCCN1CCCNc1cc(NCc2ccc(F)cc2F)nc(-c2cncc(C(F)(F)F)c2)n1 [Compound 57, 1-{3-[6-(2,4-Difluoro-benzylamino)-2-(5-trifluoromethyl-pyridin-3-yl)-pyrimidin-4-ylamino]-propyl}-pyrrolidin-2-one]
18 | 1000 to 10000 | < 100 | – | Fc1ccc(CNc2cc(NCCCN3CCOCC3)nc(-c3cncc(C(F)(F)F)c3)n2)c(F)c1 [Compound 58, N-(2,4-Difluoro-benzyl)-N′-(3-morpholin-4-yl-propyl)-2-(5-trifluoromethyl-pyridin-3-yl)-pyrimidine-4,6-diamine]
19 | 1000 to 10000 | 100 to 1000 | – | NC(=O)C1CCN(c2cc(NCc3ccc(F)cc3F)nc(-c3cncc(C(F)(F)F)c3)n2)CC1 [Compound 59, 1-[6-(2,4-Difluoro-benzylamino)-2-(5-trifluoromethyl-pyridin-3-yl)-pyrimidin-4-yl]-piperidine-4-carboxylic acid amide]
20 | 1000 to 10000 | < 100 | – | CN(C)CCCNc1cc(NCc2ccc(F)cc2F)nc(-c2cncc(C(F)(F)F)c2)n1 [Compound 60, N-(2,4-Difluoro-benzyl)-N′-(3-dimethylamino-propyl)-2-(5-trifluoromethyl-pyridin-3-yl)-pyrimidine-4,6-diamine]
21 | – | – | 100 to 1000 | COC(=O)c1cc(NCc2ccc(F)cc2F)nc(-c2cncc(C(F)(F)F)c2)n1 [Compound 273, 6-(2,4-Difluoro-benzylamino)-2-(5-trifluoromethyl-pyridin-3-yl)-pyrimidine-4-carboxylic acid methyl ester]

— US9199962B2, “Substituted azaheterocycles for the treatment of cancer” (Merck Patent GmbH, priority 2011, dated 2015)
